Where “and” joins values, the source holds several entries; their conditions need not be identical. Identical values can stand only once.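 Where inhibition never reached the appropriate level, the endpoint shown equals the highest concentration tested. Otherwise, values were interpolated linearly from a five-concentration, 48-hour dose response in 96-well plates. Abbreviation: GI50, concentration required for 50% inhibition of growth. At the TGI there is no net growth.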
Columns and labels:
Assay in all cases: DTP human tumour cell line panel, 48 h
HT29 colon = test system: HT29 colon
SNB-19 CNS = test system: SNB-19 CNS
MDA-MB-231 breast = test system: MDA-MB-231 breast
MALME-3M melanoma = test system: MALME-3M melanoma
OVCAR-5 ovarian = test system: OVCAR-5 ovarian
LOX IMVI melanoma = test system: LOX IMVI melanoma
HCC-2998 colon = test system: HCC-2998 colon
COLO 205 colon = test system: COLO 205 colon
NCI-H460 lung = test system: NCI-H460 lung
RXF 393 renal = test system: RXF 393 renal

| SMILES | GI50 (HT29 colon) | TGI (HT29 colon) | GI50 (SNB-19 CNS) | TGI (SNB-19 CNS) [µM] | GI50 (MDA-MB-231 breast) | TGI (MDA-MB-231 breast) | GI50 (MALME-3M melanoma) | TGI (MALME-3M melanoma) | GI50 (OVCAR-5 ovarian) | TGI (OVCAR-5 ovarian) | GI50 (LOX IMVI melanoma) | TGI (LOX IMVI melanoma) | GI50 (HCC-2998 colon) | TGI (HCC-2998 colon) | GI50 (COLO 205 colon) | TGI (COLO 205 colon) | GI50 (NCI-H460 lung) | TGI (NCI-H460 lung) | GI50 (RXF 393 renal) | TGI (RXF 393 renal) |
| --- | --- | --- | --- | --- | --- | --- | --- | --- | --- | --- | --- | --- | --- | --- | --- | --- | --- | --- | --- | --- |
| O=C(c1c(F)ccc(NS(=O)(=O)N2CC[C@@H](F)C2)c1F)c1c[nH]c2ncc(-c3cnc(C4CC4)nc3)cc12 | 0.0124 µM and 0.0118 µM | > 10 µM and 12.4 µM | > 10 µM and 9.77 µM | > 85.4 | 2.88 µM and 3.47 µM | > 10 µM and 46.8 µM | 0.00378 µM and < 0.01 µM | < 0.043 µM | > 6.42 µM and 9.04 µM | > 10 µM and 46.4 µM | 0.305 µM and 0.342 µM | > 10 µM and 17.2 µM | > 10 µM and 12.5 µM | > 10 µM and 29.8 µM | 0.00482 µM and < 0.01 µM | > 7.6 µM and 12.2 µM | 4.25 µM and 4.67 µM | > 10 µM and 26.3 µM | 3.46 µM and 4.36 µM | > 10 µM and 25 µM |
| N=c1ccn2c(n1)OC1C(O)C(CO)OC12 (configuration not stated) | 6.23 µM | > 1000 µM |  | > 480 | > 100 µM | > 1000 µM | 4.22 µM | 78.5 µM and > 100 µM |  | 380 µM and > 100 µM | 0.497 µM | 98.9 µM and > 100 µM | 0.0303 µM |  | 2.28 µM | > 1000 µM | 0.242 µM | 168 µM and > 100 µM | > 25.1 µM | > 1000 µM |
| C=CC(=O)N1CCC(C2CCNc3c(C(N)=O)c(-c4ccc(Oc5ccccc5)cc4)nn32)CC1 (configuration not stated) | 16.6 µM | 55.8 µM | 14.4 µM | > 100 | 19.2 µM | 92.5 µM | 14 µM | 34.6 µM | 31.2 µM | > 100 µM | 13.3 µM | 29.4 µM | 14.8 µM | 28.6 µM | 19.1 µM | 40.2 µM | 31.4 µM | > 100 µM | 9.22 µM | 26.6 µM |
| CCOc1ccc2nc(S/C(=C/C=C(C#N)C#N)c3ccc(C)cc3)sc2c1 | 4.71 µM | > 100 µM | > 100 µM | > 100 | 17.8 µM | 43.4 µM | 33 µM | > 100 µM | 57.5 µM | > 100 µM | 9.87 µM | 23.9 µM | 25.1 µM | 53.6 µM | 25.8 µM | > 100 µM | 22.7 µM | 57.9 µM | 19.9 µM | 46.7 µM |
| O=c1c2ccccc2sc2cccc(NCCCN3CCN(CCCNc4cccc5sc6ccccc6c(=O)c45)CC3)c12 |  | > 100 µM |  | > 100 |  | > 100 µM |  | > 100 µM |  | > 100 µM |  | > 100 µM |  | > 100 µM |  | > 100 µM |  | > 100 µM |  | > 100 µM |
| COc1ccncc1C#Cc1cncc(C(=O)Nc2ccc(CN3CCN(C)CC3)c(C(F)(F)F)c2)c1 | 9.33 µM | > 100 µM | 47 µM | > 100 | 7.71 µM | 85.4 µM | 4.3 µM | 23.3 µM | 23 µM | > 100 µM | 5.79 µM | 25.7 µM | 24.8 µM | > 100 µM | 11.2 µM | 64 µM | 16.1 µM | 71 µM | 15.7 µM | 49.5 µM |
| C=CCCCCCCCCCCC1(O)C=CC2=[N+](CCCCCN=C(N)N)CCCN21 (configuration not stated) | 3.87 µM | 22.7 µM | 5.86 µM | 30.4 | 9.98 µM | 30.2 µM | 2.52 µM | 10.9 µM | 6.25 µM | 20.8 µM | 6.3 µM | 26 µM | 2.66 µM | 24.6 µM | 2.78 µM | 13.9 µM | 4.38 µM | 19.9 µM | 3.19 µM | 19.3 µM |
| Cc1csc(Nc2nc(-c3cccc(Br)c3)nc(C(Cl)(Cl)Cl)n2)n1 | 0.56 µM | > 100 µM | 2.87 µM | > 100 | 2.78 µM | > 100 µM | > 100 µM | > 100 µM | 5.2 µM | > 100 µM | > 100 µM | > 100 µM | 1.63 µM | 3.57 µM | 0.855 µM | > 23.3 µM | 1.16 µM | 3.53 µM | 1 µM | 4.04 µM |
| Cn1cnc([N+](=O)[O-])c1S(=O)(=O)Oc1ccccc1 | 3.14 µM | 8.21 µM | > 100 µM | > 100 | 15.5 µM | 47.9 µM | 2.14 µM | 4.32 µM | 23.9 µM | 74.9 µM | 3.3 µM | 9.9 µM | 19.3 µM | 40.7 µM | 1.68 µM | 3.29 µM | 23.9 µM | > 72.8 µM | 2.23 µM | 6.04 µM |
